Assay results taken from PubChem BioAssay (NCI).
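These data come from cells grown in 96-well plates and exposed to compound for 48 hours at five concentrations. Here, GI50 denotes the concentration required for 50% inhibition of growth. At the TGI there is no net growth.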

What was measured:
Assay in all cases: NCI-60 cell line screen, 48 h
[1] = tested on: UACC-62 melanoma
[2] = tested on: RPMI-8226 leukemia
[3] = tested on: OVCAR-5 ovarian
[4] = tested on: NCI-H23 lung
[5] = tested on: BT-549 breast
[6] = tested on: 786-0 renal
[7] = tested on: HL-60(TB) leukemia
[8] = tested on: K-562 leukemia
[9] = tested on: SK-MEL-28 melanoma
[10] = tested on: SK-MEL-5 melanoma
[11] = tested on: HS 578T breast
[12] = tested on: SNB-19 CNS
[13] = tested on: A549 NSCLC
[14] = tested on: NCI-H226 lung
[15] = tested on: HCT-116 colon
[16] = tested on: HT29 colon
[17] = tested on: PC-3 prostate
[18] = tested on: U251 CNS
[19] = tested on: CAKI-1 renal
[20] = tested on: SK-OV-3 ovarian
[21] = tested on: UACC-257 melanoma
[22] = tested on: DU-145 prostate
[23] = tested on: MOLT-4 leukemia
[24] = tested on: SW-620 colon
[25] = tested on: SK-MEL-2 melanoma
[26] = tested on: SNB-75 CNS
[27] = tested on: OVCAR-4 ovarian
[28] = tested on: T-47D breast

OCCNc1nc(Nc2ccc(Cl)c(Cl)c2)nc2ccccc12
GI50 [1]: 10.9 µM
TGI [1]: 23.5 µM
GI50 [2]: 3.74 µM
TGI [2]: 22.1 µM
GI50 [3]: 2.21 µM
TGI [3]: 6.22 µM
GI50 [4]: 10.3 µM
TGI [4]: 25.1 µM
GI50 [5]: 16 µM
TGI [5]: 29.8 µM
GI50 [6]: 3.04 µM
TGI [6]: 11 µM
GI50 [7]: 8.69 µM
TGI [7]: 33.4 µM
GI50 [8]: 3.09 µM
TGI [8]: 10.8 µM
GI50 [9]: 6.38 µM
TGI [9]: 20.7 µM
GI50 [10]: 4.75 µM
TGI [10]: 17.7 µM
GI50 [11]: 6.91 µM
TGI [11]: 25.2 µM
GI50 [12]: 5.02 µM
TGI [12]: 18.6 µM
GI50 [13]: 4.2 µM
TGI [13]: 18 µM
GI50 [14]: 12.9 µM
TGI [14]: 34.2 µM
GI50 [15]: 3.52 µM
TGI [15]: 14.6 µM
GI50 [16]: 3.39 µM
TGI [16]: 12.1 µM
GI50 [17]: 4.47 µM
TGI [17]: 16.6 µM
GI50 [18]: 3.7 µM
TGI [18]: 15.5 µM
GI50 [19]: 4.66 µM
TGI [19]: 18.2 µM
GI50 [20]: 11 µM
TGI [20]: 23.4 µM
GI50 [21]: 11.1 µM
TGI [21]: 23.1 µM
GI50 [22]: 11 µM
TGI [22]: 22.9 µM
GI50 [23]: 1.87 µM
TGI [23]: 13.2 µM
GI50 [24]: 4.02 µM
TGI [24]: 16.2 µM
GI50 [25]: 16.4 µM
TGI [25]: 33.1 µM
GI50 [26]: 4.79 µM
TGI [26]: 18.7 µM
GI50 [27]: 4.64 µM
TGI [27]: 18.4 µM
GI50 [28]: 9.65 µM
TGI [28]: 25.9 µM
